Experimental findings from the supplement of paper PMC10307832 are described below.

Experiment in all cases: relative viability (nuclei count vs DMSO), 5 days (fraction); higher = more cells survive
Compound in assay [1]: COCC[n+]1c2c(n(Cc3cnccn3)c1C)C(=O)c1ccccc1C2=O [YM155] + COc1cc2c(Oc3ccc(NC(=O)C4(C(=O)Nc5ccc(F)cc5)CC4)cc3F)ccnc2cc1OCCCN1CCOCC1 [Foretinib] (partner 0.25 µM)
The gist of the method:
(§1)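 One day after seeding in 1536-well plates, lung cancer cell lines were dosed by pin tool. Dosing was either single-drug or a fixed anchor-drug dose plus five library-drug doses (not always all listed) in √10 steps. After 5 days, nuclei were stained in one fix-and-stain step and counted on 4× images, and relative viability is the nuclei count of treated wells over that of vehicle wells, given as the median of duplicate plates.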

Compound in assay [2]: CC(C)(C)c1cc(NC(=O)Nc2ccc(-c3cn4c(n3)sc3cc(OCCN5CCOCC5)ccc34)cc2)no1 [Quizartinib] + Cc1cc(Nc2cc(N3CCN(C)CC3)nc(Sc3ccc(NC(=O)C4CC4)cc3)n2)n[nH]1 [Tozasertib] (partner 0.1 µM)
The method, boiled down:
as §1

Compound in assay [3]: COCC[n+]1c2c(n(Cc3cnccn3)c1C)C(=O)c1ccccc1C2=O [YM155] + CC(C)C[C@H](NC(=O)[C@H](Cc1ccccc1)NC(=O)c1cnccn1)B(O)O [Bortezomib] (partner 0.002 µM)
The method, boiled down:
as §1

Compound in assay [4]: COCC[n+]1c2c(n(Cc3cnccn3)c1C)C(=O)c1ccccc1C2=O [YM155] + C[C@]1(O)C[C@@H](c2nc(-c3ccc4ccc(-c5ccccc5)nc4c3)c3c(N)nccn32)C1 [Linsitinib] (partner 1 µM)
The method, boiled down:
as §1

Take 201T: the relative viability in assay [1] (first compound 0.002 µM) stood at 1.16; in assay [1] (first compound 0.006325 µM) it was 1.11; in assay [1] (first compound 0.02 µM) it was 1.05; in assay [1] (first compound 0.06325 µM), 1.16; in assay [2] (first compound 0.001 µM) it was 0.878; in assay [2] (first compound 0.003162 µM), 0.858. Moreover, the relative viability amounted to 0.995 in assay [2] (first compound 0.01 µM); 0.887 in assay [2] (first compound 0.03162 µM); 0.854 in assay [2] (first compound 0.1 µM); 1.04 in assay [3] (first compound 0.002 µM); 1.13 in assay [3] (first compound 0.006325 µM); 1.09 in assay [3] (first compound 0.02 µM). Moreover, the relative viability is 1.06 in assay [3] (first compound 0.06325 µM); 0.98 in assay [4] (first compound 0.002 µM); 0.984 in assay [4] (first compound 0.006325 µM); 1.03 in assay [4] (first compound 0.02 µM); 1.06 in assay [4] (first compound 0.06325 µM).
As to A549, the relative viability in assay [1] (first compound 0.002 µM) came to 0.923; in assay [1] (first compound 0.006325 µM), 0.932; in assay [1] (first compound 0.02 µM) it was 1.1; in assay [1] (first compound 0.06325 µM), 0.624; in assay [4] (first compound 0.002 µM) it was 0.61; in assay [4] (first compound 0.006325 µM), 0.576. Further, the results for the relative viability in assay [4] (first compound 0.02 µM) and in assay [4] (first compound 0.06325 µM) were 0.544 and 0.732, respectively.
Consider A-427, for which the relative viability in assay [1] (first compound 0.002 µM) amounted to 1.08; in assay [1] (first compound 0.006325 µM) it was 0.984; in assay [1] (first compound 0.02 µM), 0.976; in assay [1] (first compound 0.06325 µM) it was 1.05; in assay [2] (first compound 0.003162 µM), 0.204; in assay [2] (first compound 0.01 µM) it was 0.191. In addition, the relative viability in assay [2] (first compound 0.03162 µM) was found to be 0.204; in assay [2] (first compound 0.1 µM) it was 0.189; in assay [3] (first compound 0.002 µM), 0.972; in assay [3] (first compound 0.006325 µM) it was 0.99; in assay [3] (first compound 0.02 µM), 1.17; in assay [3] (first compound 0.06325 µM) it was 0.896. The relative viability in assay [4] (first compound 0.002 µM) is 1.06; in assay [4] (first compound 0.006325 µM), 1.22; in assay [4] (first compound 0.02 µM), 1.12; in assay [4] (first compound 0.06325 µM), 1.09.
Consider ABC-1, for which the relative viability was determined as 1.03 in assay [1] (first compound 0.002 µM); 0.824 in assay [1] (first compound 0.006325 µM); 0.206 in assay [1] (first compound 0.02 µM); 0.2 in assay [1] (first compound 0.06325 µM); 0.184 in assay [2] (first compound 0.001 µM); 0.179 in assay [2] (first compound 0.003162 µM). The relative viability stood at 0.172 in assay [2] (first compound 0.01 µM); 0.205 in assay [2] (first compound 0.03162 µM); 0.183 in assay [2] (first compound 0.1 µM); 0.271 in assay [3] (first compound 0.002 µM); 0.4 in assay [3] (first compound 0.006325 µM); 0.241 in assay [3] (first compound 0.02 µM). Further, the relative viability was found to be 0.209 in assay [3] (first compound 0.06325 µM); 0.727 in assay [4] (first compound 0.002 µM); 0.457 in assay [4] (first compound 0.006325 µM); 0.153 in assay [4] (first compound 0.02 µM); 0.233 in assay [4] (first compound 0.06325 µM).
With BEN, the relative viability in assay [1] (first compound 0.002 µM) is 0.622; in assay [1] (first compound 0.006325 µM) it was 0.716; in assay [1] (first compound 0.02 µM), 0.804; in assay [1] (first compound 0.06325 µM), 0.645; in assay [2] (first compound 0.001 µM) it was 0.48; in assay [2] (first compound 0.003162 µM) it was 0.504. Further, the relative viability turned out to be 0.562 in assay [2] (first compound 0.01 µM); 0.54 in assay [2] (first compound 0.03162 µM); 0.39 in assay [2] (first compound 0.1 µM); 0.665 in assay [3] (first compound 0.002 µM); 0.849 in assay [3] (first compound 0.006325 µM); 0.852 in assay [3] (first compound 0.02 µM). Also, the relative viability in assay [3] (first compound 0.06325 µM) is 0.906; in assay [4] (first compound 0.002 µM), 0.922; in assay [4] (first compound 0.006325 µM), 1.03; in assay [4] (first compound 0.02 µM) it was 0.878; in assay [4] (first compound 0.06325 µM) it was 0.929.
As for CAL-12T, the relative viability in assay [1] (first compound 0.002 µM) turned out to be 1.14; in assay [1] (first compound 0.006325 µM), 1.16; in assay [1] (first compound 0.02 µM), 0.928; in assay [1] (first compound 0.06325 µM), 0.587; in assay [2] (first compound 0.001 µM), 0.32; in assay [2] (first compound 0.003162 µM) it was 0.283. The relative viability is 0.315 in assay [2] (first compound 0.01 µM); 0.234 in assay [2] (first compound 0.03162 µM); 0.199 in assay [2] (first compound 0.1 µM); 1.04 in assay [3] (first compound 0.006325 µM); 1.29 in assay [3] (first compound 0.02 µM); 0.895 in assay [3] (first compound 0.06325 µM). Further, the relative viability in assay [4] (first compound 0.002 µM) came to 0.818; in assay [4] (first compound 0.006325 µM), 0.98; in assay [4] (first compound 0.02 µM), 0.9; in assay [4] (first compound 0.06325 µM), 0.781.
In the case of COR-L23, the relative viability in assay [1] (first compound 0.002 µM) is 0.941; in assay [1] (first compound 0.006325 µM), 0.866; in assay [1] (first compound 0.02 µM), 0.658; in assay [1] (first compound 0.06325 µM) it was 0.244; in assay [2] (first compound 0.001 µM), 0.175; in assay [2] (first compound 0.003162 µM), 0.178. The relative viability came to 0.159 in assay [2] (first compound 0.01 µM); 0.116 in assay [2] (first compound 0.03162 µM); 0.139 in assay [2] (first compound 0.1 µM); 0.923 in assay [3] (first compound 0.002 µM); 0.929 in assay [3] (first compound 0.006325 µM); 0.617 in assay [3] (first compound 0.02 µM). For the same cell line, the relative viability in assay [3] (first compound 0.06325 µM) was 0.362; in assay [4] (first compound 0.002 µM), 0.846; in assay [4] (first compound 0.006325 µM) it was 0.857; in assay [4] (first compound 0.02 µM) it was 0.463; in assay [4] (first compound 0.06325 µM), 0.174.
For the cell line COR-L 105, the relative viability is 0.994 in assay [1] (first compound 0.002 µM); 1.02 in assay [1] (first compound 0.006325 µM); 0.848 in assay [1] (first compound 0.02 µM); 0.733 in assay [1] (first compound 0.06325 µM); 0.344 in assay [2] (first compound 0.001 µM); 0.343 in assay [2] (first compound 0.003162 µM). Also, the relative viability in assay [2] (first compound 0.01 µM) is 0.42; in assay [2] (first compound 0.03162 µM), 0.36; in assay [2] (first compound 0.1 µM), 0.347; in assay [3] (first compound 0.002 µM), 0.682; in assay [3] (first compound 0.006325 µM) it was 0.81; in assay [3] (first compound 0.02 µM), 0.958. Moreover, the relative viability in assay [3] (first compound 0.06325 µM) stood at 0.786; in assay [4] (first compound 0.002 µM), 1; in assay [4] (first compound 0.006325 µM), 1.13; in assay [4] (first compound 0.02 µM), 1.04; in assay [4] (first compound 0.06325 µM), 0.672.
For Calu-6, the relative viability in assay [1] (first compound 0.002 µM) is 0.882; in assay [1] (first compound 0.006325 µM) it was 0.845; in assay [1] (first compound 0.02 µM) it was 0.727; in assay [1] (first compound 0.06325 µM), 0.0962; in assay [3] (first compound 0.002 µM), 0.966; in assay [3] (first compound 0.006325 µM) it was 0.84. The relative viability is 0.298 in assay [3] (first compound 0.02 µM); 0.188 in assay [3] (first compound 0.06325 µM); 0.946 in assay [4] (first compound 0.002 µM); 0.836 in assay [4] (first compound 0.006325 µM); 0.848 in assay [4] (first compound 0.02 µM); 0.175 in assay [4] (first compound 0.06325 µM).
For ChaGo-K-1, the relative viability in assay [1] (first compound 0.002 µM) turned out to be 0.854; in assay [1] (first compound 0.006325 µM), 0.984; in assay [1] (first compound 0.02 µM) it was 0.926; in assay [1] (first compound 0.06325 µM), 0.854; in assay [2] (first compound 0.001 µM), 0.235; in assay [2] (first compound 0.003162 µM), 0.234. For the same cell line, the relative viability came out at 0.209 in assay [2] (first compound 0.01 µM); 0.205 in assay [2] (first compound 0.03162 µM); 0.197 in assay [2] (first compound 0.1 µM); 1.02 in assay [3] (first compound 0.002 µM); 1.01 in assay [3] (first compound 0.006325 µM); 0.927 in assay [3] (first compound 0.02 µM). In addition, in assay [3] (first compound 0.06325 µM), the relative viability is 0.956.
